# Measured values as given in BindingDB's records for doi:10.7270/Q2ZC817P (The Scripps Research Institute Molecular Screening Center, 2007).
# Where a name gives a salt, the structure may show the parent alone.
# Target: Sphingosine 1-phosphate receptor 1 (Homo sapiens, UniProt P21453)
# Assay: S1P1 agonism potentiation – cell-based, potentiator mode, 60K MLSMR set, dose response (AID 466)
# Conditions: not given
# Sphingosine 1-phosphate receptor 1, sequence (P21453 whole entry): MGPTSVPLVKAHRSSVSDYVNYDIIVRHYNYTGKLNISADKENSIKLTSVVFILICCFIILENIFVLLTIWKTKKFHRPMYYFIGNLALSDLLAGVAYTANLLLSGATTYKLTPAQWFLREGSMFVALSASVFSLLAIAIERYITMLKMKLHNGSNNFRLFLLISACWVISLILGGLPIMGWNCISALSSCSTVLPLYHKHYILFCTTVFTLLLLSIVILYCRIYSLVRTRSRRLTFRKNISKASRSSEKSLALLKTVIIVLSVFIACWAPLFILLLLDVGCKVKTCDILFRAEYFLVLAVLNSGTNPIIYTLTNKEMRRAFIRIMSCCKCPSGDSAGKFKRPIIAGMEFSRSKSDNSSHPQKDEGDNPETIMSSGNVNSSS
row,SMILES,EC50
1,"O=C(Nc1cccc(C(F)(F)F)c1)N1CCC(c2nc(-c3ccc(F)cc3)no2)CC1 [4-[3-(4-Fluoro-phenyl)-[1,2,4]oxadiazol-5-yl]-piperidine-1-carboxylic acid (3-trifluoromethyl-phenyl)-amide]",6.42 µM
2,"O=C(Nc1ccc(Cl)cc1)N1CCC(c2nc(-c3ccc(F)cc3)no2)CC1 [4-[3-(4-Fluoro-phenyl)-[1,2,4]oxadiazol-5-yl]-piperidine-1-carboxylic acid (4-chloro-phenyl)-amide]",5.9 µM
3,"Fc1ccc2[nH]c3c(N4CCN(Cc5ccc6c(c5)OCO6)CC4)ncnc3c2c1 [4-[4-(1,3-benzodioxol-5-ylmethyl)-1-piperazinyl]-8-fluoro-5H-pyrimido[5,4-b]indole]",2 µM
4,"Clc1ccc(OCCN2CCN(c3ncnc4sccc34)CC2)cc1 [4-[4-[2-(4-chloranylphenoxy)ethyl]piperazin-1-yl]thieno[2,3-d]pyrimidine]",0.108 µM
5,"CCOc1ccc(-c2nc(-c3ccncc3)no2)cc1OCC [4-[5-(3,4-diethoxyphenyl)-1,2,4-oxadiazol-3-yl]pyridine]",0.226 µM
6,"COC(=O)c1ccc(C(c2c(N)n(CC(C)C)c(=O)[nH]c2=O)N2CCN(c3ccccc3)CC2)cc1 (configuration not stated) [4-[[6-amino-1-(2-methylpropyl)-2,4-dioxo-5-pyrimidinyl]-(4-phenyl-1-piperazinyl)methyl]benzoic acid methyl ester]",> 95 µM
7,CCN(CC)c1ccc2cc(NC(=O)CCC(=O)O)c(=O)oc2c1 [4-[[7-(diethylamino)-2-keto-chromen-3-yl]amino]-4-keto-butyric acid],8.31 µM
8,"CC(=O)c1c(C)[nH]c(C(=O)OCCCCN2C(=O)c3ccccc3C2=O)c1C [4-acetyl-3,5-dimethyl-1H-pyrrole-2-carboxylic acid 4-(1,3-dioxo-2-isoindolyl)butyl ester]",2.1 µM
9,Nc1nonc1C(=O)NCCNCc1cc(Br)ccc1OCc1ccccc1F [4-amino-N-[2-[[5-bromo-2-(2-fluorobenzyl)oxy-benzyl]amino]ethyl]furazan-3-carboxamide;hydrochloride],8.9 µM
10,Nc1nonc1C(=O)NCCNCc1cc(Br)ccc1OCc1ccc(F)cc1 [4-amino-N-[2-[[5-bromo-2-(4-fluorobenzyl)oxy-benzyl]amino]ethyl]furazan-3-carboxamide;hydrochloride],7.81 µM
11,"CCCCOc1ncnc2c1[nH]c1ccc(F)cc12 [4-butoxy-8-fluoranyl-5H-pyrimido[5,4-b]indole]",3.07 µM
12,CCCCOc1ccc(S(=O)(=O)Nc2cccnc2)cc1 [4-butoxy-N-(3-pyridinyl)benzenesulfonamide],8.55 µM
13,"Cc1sc2ncnc(Sc3nnnn3-c3ccccc3)c2c1C [5,6-dimethyl-4-(1-phenyltetrazol-5-yl)sulfanylthieno[2,3-d]pyrimidine]",> 95 µM
14,"c1ccc(C(Cc2nc(-c3cccnc3)no2)c2ccccc2)cc1 [5-(2,2-diphenylethyl)-3-(3-pyridinyl)-1,2,4-oxadiazole]",2.66 µM
15,"O=C(Nc1ccc(O)cc1)c1cc2n(n1)C(C(F)(F)F)CC(c1ccco1)N2 (configuration not stated) [5-(2-furanyl)-N-(4-hydroxyphenyl)-7-(trifluoromethyl)-1,5,6,7-tetrahydropyrazolo[1,5-a]pyrimidine-2-carboxamide]",3.29 µM
16,"Cc1cc(C)cc(-c2nc(-c3ccncc3)no2)c1 [5-(3,5-dimethylphenyl)-3-(4-pyridyl)-1,2,4-oxadiazole]",1.44 µM
17,CC(C)N1C(=O)CCC1C(=O)N1CCC(Cc2ccccc2)CC1 (configuration not stated) [5-(4-benzylpiperidine-1-carbonyl)-1-isopropyl-2-pyrrolidone],> 95 µM
18,"CCc1ccc(-c2nc(-c3ccncc3)no2)cc1 [5-(4-ethylphenyl)-3-(4-pyridyl)-1,2,4-oxadiazole]",4.41 µM
19,O=C(Nc1ccccc1C(F)(F)F)c1cc(-c2ccc(O)cc2)on1 [5-(4-hydroxyphenyl)-N-[2-(trifluoromethyl)phenyl]isoxazole-3-carboxamide],0.778 µM
20,"c1ccc(-c2ccc(-c3nc(-c4cccnc4)no3)cc2)cc1 [5-(4-phenylphenyl)-3-(3-pyridinyl)-1,2,4-oxadiazole]",1.91 µM
21,"c1ccc(-c2ccc(-c3nc(-c4ccncc4)no3)cc2)cc1 [5-(4-phenylphenyl)-3-(4-pyridyl)-1,2,4-oxadiazole]",8.31 µM

# More lines, now with the values ahead:
row,EC50,SMILES
1,3.57 µM,"COc1cccc(N2CCN(c3ncnc4c3[nH]c3ccccc34)CC2C)c1 (configuration not stated) [4-[4-(3-methoxyphenyl)-3-methyl-1-piperazinyl]-5H-pyrimido[5,4-b]indole]"
2,1.12 µM,"Cc1ccc(C(C)C)c(OCc2nc(-c3nonc3N)no2)c1 [4-[5-[(5-methyl-2-propan-2-yl-phenoxy)methyl]-1,2,4-oxadiazol-3-yl]-1,2,5-oxadiazol-3-amine]"
3,1.02 µM,"COc1ccc(-c2noc(-c3cccc(OC)c3OC)n2)cc1OC [5-(2,3-dimethoxyphenyl)-3-(3,4-dimethoxyphenyl)-1,2,4-oxadiazole]"
4,6.17 µM,"COc1ccc(-c2noc(-c3ccccc3F)n2)cc1 [5-(2-fluorophenyl)-3-(4-methoxyphenyl)-1,2,4-oxadiazole]"
5,0.999 µM,"COc1ccccc1-c1nc(-c2cccc(C)c2)no1 [5-(2-methoxyphenyl)-3-(3-methylphenyl)-1,2,4-oxadiazole]"
6,5.75 µM,"COc1ccccc1-c1cc(C(=O)Nc2ccccc2SC)no1 [5-(2-methoxyphenyl)-N-(2-methylsulfanylphenyl)-1,2-oxazole-3-carboxamide]"
7,0.732 µM,"CCOc1ccc(-c2nc(-c3ccc(OC)cc3)no2)cc1OCC [5-(3,4-Diethoxy-phenyl)-3-(4-methoxy-phenyl)-[1,2,4]oxadiazole]"
8,0.107 µM,"CCOc1ccc(-c2nc(-c3ccccc3)no2)cc1OCC [5-(3,4-diethoxyphenyl)-3-phenyl-1,2,4-oxadiazole]"
9,0.139 µM,"COc1ccc(-c2nc(-c3ccccc3OC)no2)cc1OC [5-(3,4-dimethoxyphenyl)-3-(2-methoxyphenyl)-1,2,4-oxadiazole]"
10,1.07 µM,"COc1ccc(-c2nc(-c3cccc(C)c3)no2)cc1OC [5-(3,4-dimethoxyphenyl)-3-(3-methylphenyl)-1,2,4-oxadiazole]"
11,1.2 µM,"COc1ccc(-c2nc(-c3ccncc3)no2)cc1OC [5-(3,4-dimethoxyphenyl)-3-(4-pyridyl)-1,2,4-oxadiazole]"
12,2.55 µM,"COc1ccccc1OCc1nc(C#N)c(N2CC(C)CC(C)C2)o1 (configuration not stated) [5-(3,5-dimethyl-1-piperidinyl)-2-[(2-methoxyphenoxy)methyl]-4-oxazolecarbonitrile]"
13,68.9 µM,"CCOc1ccc(C2CC(c3cccc(OC)c3OC)n3nnnc3N2)cc1Cl (configuration not stated) [5-(3-chloranyl-4-ethoxy-phenyl)-7-(2,3-dimethoxyphenyl)-1,5,6,7-tetrahydro-[1,2,3,4]tetrazolo[1,5-a]pyrimidine]"
14,3.77 µM,COc1ccccc1-n1nnnc1S(=O)(=O)Cc1ccc(Cl)cc1 [5-(4-chlorobenzyl)sulfonyl-1-(2-methoxyphenyl)tetrazole]

# Same assay, conditions: inactive by the depositor's call
row,SMILES,EC50
1,"CCOC(=O)c1ccc(NC(=O)CCc2nc(-c3ccc(Cl)cc3)no2)cc1 [4-[3-[3-(4-chlorophenyl)-1,2,4-oxadiazol-5-yl]propanoylamino]benzoic acid ethyl ester]",13 µM
2,"Oc1ccc(N2CCN(c3ncnc4sc5c(c34)CCC5)CC2)cc1 [4-[4-(7,8-dihydro-6H-cyclopenta[4,5]thieno[1,2-c]pyrimidin-1-yl)-1-piperazinyl]phenol]",10.6 µM
3,Cn1nc(CC(=O)Nc2ccc(N3CCN(C(=O)OC(C)(C)C)CC3)cc2)c2ccccc2c1=O [4-[4-[[2-(3-methyl-4-oxo-1-phthalazinyl)-1-oxoethyl]amino]phenyl]-1-piperazinecarboxylic acid tert-butyl ester],14.4 µM
4,"CCOc1ccc(Cc2nc(-c3nonc3N)no2)cc1OCC [4-[5-(3,4-diethoxybenzyl)-1,2,4-oxadiazol-3-yl]-1,2,5-oxadiazol-3-amine]",12.6 µM
5,c1ccc(N2CCN(Cc3ccnc4ccccc34)CC2)cc1 [4-[(4-phenyl-1-piperazinyl)methyl]quinoline],10.6 µM
6,CCOC(=O)N1CCC(NC(=O)C2CCCN(Cc3nc(-c4cccc(Cl)c4)oc3C)C2)CC1 (configuration not stated) [4-[[1-[[2-(3-chlorophenyl)-5-methyl-oxazol-4-yl]methyl]nipecotoyl]amino]piperidine-1-carboxylic acid ethyl ester],20.1 µM
7,CN(CC1CCCO1)S(=O)(=O)c1ccc(C(=O)Nc2nc(-c3ccccn3)cs2)cc1 (configuration not stated) [4-[methyl(2-oxolanylmethyl)sulfamoyl]-N-[4-(2-pyridinyl)-2-thiazolyl]benzamide],24 µM
8,Cc1ccc2nc(C(F)(F)F)c(C#N)c(N)c2c1 [4-amino-6-methyl-2-(trifluoromethyl)-3-quinolinecarbonitrile],12 µM
9,"Cc1ccc(S(=O)(=O)n2nc(C)c(Br)c2C)c(C)c1C [4-bromanyl-3,5-dimethyl-1-(2,3,4-trimethylphenyl)sulfonyl-pyrazole]",83.1 µM
10,"CCCCOc1ccc(S(=O)(=O)Nc2cc(OC)ccc2OC)cc1 [4-butoxy-N-(2,5-dimethoxyphenyl)benzenesulfonamide]",12.1 µM
11,CCN(CC)S(=O)(=O)c1cc(C(=O)Nc2ccncc2)ccc1Cl [4-chloranyl-3-(diethylsulfamoyl)-N-pyridin-4-yl-benzamide],44.2 µM
12,Cc1ccc(S(=O)(=O)Nc2ccc3ncccc3c2)cc1 [4-methyl-N-(6-quinolinyl)benzenesulfonamide],10.7 µM
13,"Cc1nc2ncnn2c(N2CCN(c3cccc(C(F)(F)F)c3)CC2)c1C [5,6-Dimethyl-7-[4-(3-trifluoromethyl-phenyl)-piperazin-1-yl]-[1,2,4]triazolo[1,5-a]pyrimidine]",15.4 µM
14,"COc1cccc(-c2cc(C(=O)Nc3ccccc3SC)no2)c1 [5-(3-methoxyphenyl)-N-(2-methylsulfanylphenyl)-1,2-oxazole-3-carboxamide]",16 µM

# More lines, now with the values ahead:
row,EC50,SMILES
1,57.7 µM,COc1ccccc1-c1cc(C(=O)Nc2cc(C)nn2-c2ccccc2)no1 [5-(2-methoxyphenyl)-N-(3-methyl-1-phenyl-1H-pyrazol-5-yl)isoxazole-3-carboxamide]
2,18.8 µM,"COc1ccc(-c2nc(-c3cccc(C(F)(F)F)c3)no2)cc1OC [5-(3,4-dimethoxyphenyl)-3-[3-(trifluoromethyl)phenyl]-1,2,4-oxadiazole]"
3,11.8 µM,"Cc1cccc(-c2nc(C#N)c(NC3CCCCC3)o2)c1 [5-(cyclohexylamino)-2-(3-methylphenyl)-1,3-oxazole-4-carbonitrile]"
